Laboratory results published in patent publication US4383113A, “Agricultural sulfonamides” (E. I. Du Pont de Nemours and Company, priority 1981, dated 1983).

Assays:
Experiment in all cases: Test A post-emergence
Set-up in all cases: key: 0 = no effect, 10 = maximum effect; letter = response symbol
Conditions in all cases: 0.4 kg/ha
morningglory = type: in vivo, Ipomoea spp.
How it was run: (§1)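 Seeds and tubers were treated preemergence in a growth medium with compound in a nonphytotoxic solvent, against untreated controls; emerged plants such as two-leaf barnyardgrass and five-leaf cotton were sprayed postemergence, against solvent-sprayed controls. After sixteen days in a greenhouse, response was rated visually from 0 to 10.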

bush bean = type: in vivo, bush beans
cassia = type: in vivo, Cassia tora
How it was run: as §1

wild oats = type: in vivo, Avena fatua
How it was run: as §1

nutsedge = type: in vivo, Cyperus rotundus
How it was run: as §1

cocklebur = type: in vivo, Xanthium spp.
How it was run: as §1

sorghum = type: in vivo
How it was run: as §1

cotton = type: in vivo
How it was run: as §1

corn = type: in vivo
How it was run: as §1

wheat = type: in vivo
How it was run: as §1

soybean = type: in vivo
How it was run: as §1

barnyardgrass = type: in vivo, Echinochloa crusgalli
Description: (§2) The activity of these compounds was discovered in a number of greenhouse and field tests. The ratings are based on a numerical scale extending from 0=no effect, to 10=maximum effect. The accompanying descriptive symbols have the following meanings:
(§3) Seeds of crabgrass (Digitaria spp.), barnyardgrass (Echinochloa crusgalli), wild oats (Avena fatua), cassia (Cassia tora), morningglory (Ipomoea spp.), cocklebur (Xanthium spp.), sorghum, corn, soybean, rice, wheat and nutsedge tubers (Cyperus rotundus) were planted in a growth medium and treated preemergence with a nonphytotoxic solvent solution of the compounds of Table XII. Other batches of seeds and tubers for all of the foregoing weed and crop plants were planted at the same time as controls. The control plantings were untreated; i.e., neither any compound nor any solvent was applied. At the same time, cotton having five leaves (including cotyledonary ones), bush beans with the third trifoliate leaf expanding, crabgrass with two leaves, barnyardgrass with two leaves, wild oats with two leaves, cassia with three leaves (including cotyledonary ones), morningglory with four leaves (including the cotyledonary ones), cocklebur with four leaves (including the cotyledonary ones), sorghum with four leaves, corn with four leaves, soybean with two cotyledonary leaves, rice with three leaves, wheat with one leaf, and nutsedge with three-five leaves were sprayed with a nonphytotoxic solvent solution of the compounds of Table XII. Other groups of all the same weed and crop plants were sprayed with the same nonphytotoxic solvent so as to provide control plants. Preemergence and postemergence treated plants and controls were maintained in a greenhouse for sixteen days, then all treated plants were compared with their respective controls and rated visually for response to treatment.

crabgrass = type: in vivo, Digitaria spp.
Description: as §2, §3

rice = type: in vivo
How it was run: as §1

| SMILES | response rating (morningglory) | response rating (bush bean) | response rating (cassia) | response rating (wild oats) | response rating (nutsedge) | response rating (cocklebur) | response rating (sorghum) | response rating (cotton) | response rating (corn) | response rating (wheat) | response rating (soybean) | response rating (barnyardgrass) | response rating (crabgrass) | response rating (rice) |
| --- | --- | --- | --- | --- | --- | --- | --- | --- | --- | --- | --- | --- | --- | --- |
| COC(=O)c1ccccc1S(=O)(=O)NC(=O)Nc1nc(C)cc(OC)n1 [drawing 413] | 10C | 9C | 9C | 9C | 9C | 9C | 9C | 9C | 10C | 9C | 9C | 9C |  |  |
| COc1cc(OC)nc(NC(=O)NS(=O)(=O)c2ccccc2C(=O)OCCCl)n1 [drawing 420] | 10C | 9C | 9C |  | 9C | 10C | 10C | 9C |  |  | 10C | 10C |  |  |
| COc1cc(C)nc(NC(=O)NS(=O)(=O)c2ccccc2C(=O)OCCCl)n1 [drawing 421] | 10C | 9C | 10C |  | 10C | 10C | 9C | 9C | 10C |  |  | 10C |  |  |
| COc1nc(C)nc(NC(=O)NS(=O)(=O)c2ccccc2C(=O)OC(C)C)n1 [drawing 425] | 10C | 9C | 10C |  | 10C | 10C |  | 9C | 10C | 2C |  |  |  |  |
| COc1nc(C)nc(NC(=O)NS(=O)(=O)c2ccccc2C(=O)OCCCl)n1 [drawing 426] | 10C | 9C | 9C | 4G | 9C | 10C |  | 9C | 9C | 1C |  |  |  |  |
| COc1nc(NC(=O)NS(=O)(=O)c2ccccc2C(=O)OC2CCCCC2)nc(OC)n1 [drawing 432] |  |  | 5C | 0 | 2G |  | 3G |  | 6H | 0 |  |  | 0 | 2G |
| COC(=O)c1cc(Cl)ccc1S(=O)(=O)NC(=O)Nc1nc(C)cc(OC)n1 [drawing 434] | 10C |  | 9C |  |  | 10C |  |  | 9H |  |  |  | 3G | 9C |
| COC(=O)c1cc(F)ccc1S(=O)(=O)NC(=O)Nc1nc(C)nc(OC)n1 [drawing 450] | 9C | 9C | 9C | 0 |  |  |  |  | 9C | 0 |  |  | 9C | 9C |
| CCOCCOC(=O)c1ccccc1S(=O)(=O)NC(=O)Nc1nc(Cl)cc(Cl)n1 [drawing 453] | 0 |  | 0 | 1C | 0 | 5C |  | 1C |  | 2G |  |  | 2C |  |
| C=CCCC(C)OC(=O)c1ccccc1S(=O)(=O)NC(=O)Nc1nc(C)nc(OC)n1 (stereo not shown) [drawing 455] | 10C | 9C | 9C |  | 7G | 10C |  | 9C | 9C |  | 9C |  | 9C |  |
| COc1nc(C)nc(NC(=O)NS(=O)(=O)c2ccccc2C(=O)OC2CCCCCCC2)n1 [drawing 456] | 10C | 9C | 9C | 4G | 4G | 9C |  | 9C | 9C | 2G |  |  |  |  |
| COc1cc(C)nc(NC(=O)NS(=O)(=O)c2ccccc2C(=O)OCCOc2ccccc2)n1 [drawing 461] | 9C | 9C |  |  | 8G | 10C | 8G | 9C |  |  | 9C | 9C | 4G |  |
| COc1cc(C)nc(NC(=O)NS(=O)(=O)c2ccccc2C(=O)NCc2ccccc2)n1 [drawing 464] | 10C | 9C |  | 9C |  | 9C | 9C | 9C | 10C | 9C | 9C | 9C |  |  |
| CNC(=O)c1ccccc1S(=O)(=O)NC(=O)Nc1nc(C)cc(OC)n1 [drawing 466] | 10C | 9C | 9C | 9C | 10C | 9C | 10C | 10C | 10C | 9C | 9C | 9C | 9C |  |
| CCOCCSc1cc(C)nc(NC(=O)NS(=O)(=O)c2ccccc2C(=O)OC)n1 [drawing 469] |  | 9C |  |  | 8G | 2C | 9G |  | 9H | 6G |  |  |  | 8G |
| CCCCCCOC(=O)c1ccccc1S(=O)(=O)NC(=O)Nc1nc(C)cc(COC)n1 [drawing 471] | 2C |  | 1C | 0 |  |  |  | 2C |  | 0 | 2C | 3C | 0 |  |
| COC(=O)c1ccccc1S(=O)(=O)NC(=O)Nc1nc(OC)nc(OCC(F)(F)F)n1 [drawing 473] | 10C | 9C | 10C |  |  | 10C |  | 9C | 10C |  |  |  | 3G |  |
| COCCc1nc(NC(=O)NS(=O)(=O)c2ccccc2C(=O)OC)nc(OC)n1 [drawing 474] | 10C | 9C |  |  |  |  |  | 9C | 9C | 1C | 9C |  | 9C |  |
| COc1cc(C)nc(NC(=O)NS(=O)(=O)c2ccccc2C(=O)SCc2ccccc2)n1 [drawing 475] | 10C | 9C | 9C |  |  | 9C |  | 9C | 9C |  | 8C | 9C |  |  |
| COc1cc(C)nc(NC(=O)NS(=O)(=O)c2ccccc2C(=O)SC)n1 [drawing 477] | 9C | 9C | 9C |  |  | 9C | 9C | 9C | 9C |  | 9C | 9C |  |  |
| COc1cc(C)nc(NC(=O)NS(=O)(=O)c2ccccc2C(=O)OC(C)CCl)n1 (stereo not shown) [drawing 478] | 10C |  | 10C | 8C | 9C | 9C | 9C | 9C | 9C | 8C |  | 10C | 9C |  |
